Measurements as given in patent US20110104121A1, “Female Reproductive Tract and Anal Prophylaxes” (priority 2008, published 2011).

Key:
[1] = tested on: Monocytes-derived Dendritic cells (MDDCs); assay: surface receptor expression on monocyte-derived dendritic cells, flow cytometry; assay type: cell-based, human
Method: Materials and Methods. Uterine epithelial cell line (ECC-1) was cultured according to established methods to establish cellular polarity with apical and basolateral compartments (Schaefer, et al. (2004) Immunology 112:428-436). The formation of tight junctions by the epithelial cell monolayer was routinely monitored by measurement of transepithelial resistance (TER) (Richardson, et al. (1995) Biol. Reprod. 53:488-498). […] The pooled media was centrifuged for 5 minutes at 10,000 g and stored at −80° C. for use in subsequent studies.
Peripheral blood mononuclear cells (PBMC) were obtained from residues of platelet pheresis according to known methods (Dietz, et al. (2006) Transfusion 46:2083-2089). Monocytes were subsequently enriched with Rosette Sep reagent (StemCell, Vancouver, BC). Blood specimens were from healthy adult males. Monocytes-derived Dendritic cells (MDDCs) were in vitro generated with GM-CSF (50 ng/ml) and IL-4 (50 ng/ml) (PeproTech Inc, Rocky Hill, N.J.) (Sallusto Lanzavecchia (1994) J. Exp. Med. 179:1109-1118). MDDCs were differentiated for 7 days in the presence or absence of 24-hour conditioned medium (1:1 dilution) obtained from ECC-1. In some experiments TGF-beta receptor 1 blocker, SB431542 (10 μM; Tocris Cookson, Inc., St. Louis, Mo.) (Eriksson, et al. (2006) Am. J. Reprod. Immunol. 56:321-328; Shen, et al. (2007) Clin. Exp. Immunol. 149(1):155-61) was simultaneously added with ECC-1 CM for the entire duration of the differentiation. As positive control for TGF-beta effects on MDDCs, experimental conditions were included in which MDDCs were differentiated with recombinant human TGF-beta1 at three different concentrations (0.1, 1 and 10 ng/mL) in the presence or absence of SB431542. Following 7 days of culture, cells were harvested, washed and subsequently used for flow cytometry analyses.
Following six days of in vitro differentiation, surface staining of MDDCs was performed with the following fluorochrome-labeled monoclonal antibodies: CD1a (HI149), CD14 (61D3), from Ebioscience (San Diego, Calif.); and CD163 (215927), CCR5 (45531), CXCR4 (12G5), DC-SIGN (120507) from R&D Systems (Minneapolis, Minn.). Matched isotype controls for the antibodies were used to control for non-specific binding. Following antibody staining, cells were washed with staining buffer and fixed with 2% methanol-free paraformaldehyde in 1×PBS (2% PFA), followed by analysis with a Becton Dickinson FACS CALIBUR (San Jose, Calif.). The acquired FACS data were analyzed by CELL QUEST (BD Biosciences).
Statistical analysis was performed using two-way analysis of variance (ANOVA) ([…] Prism Version 5.0; […] Software Inc., San Diego, Calif.). A value of P<0.05 was considered significant.

[2] = systemic inflammatory response to E. coli endotoxin after hydrocortisone pre-treatment in volunteers; assay type: in vivo, human; conditions: for plasma G-CSF concentrations after LPS, vs Control Group: multiplex immunobead
Excerpt: Materials and Methods. Participants (n=36) were healthy male and female volunteers who were taking no chronic medications (other than oral contraceptives) and who were between the ages of 18 and 55.
On Day 1 of the study, participants were randomized in a double-blind manner to a Control Group, a Stress Group or a Pharm Group. A peripheral intravenous catheter was inserted in a hospital outpatient facility where participants remained during the day. For six hours, Control Group participants received intravenous saline at […] by infusion pump; Stress Group participants received 1.5 μg/kg/minute hydrocortisone (SOLUCORTEF®, Upjohn) in normal saline at 10 ml/hour, and Pharm Group participants received 3.0 μg/kg/minute hydrocortisone in normal saline at 10 ml/hour. The following day (Day 2), participants were admitted to an acute care facility where a peripheral intravenous catheter was again inserted in a proximal arm vein. Continuous electrocardiographic and pulse oximetry measurements were initiated; blood pressure and core temperature were measured every 15 minutes for the next five hours and every 30 minutes for the next 4 hours. Participants received 10 ml/kg lactated Ringer's solution intravenously over the first 2 hours after which the infusion was decreased to 1.5 ml/kg/hour. After the first hour, participants were administered 2 ng/kg E. coli endotoxin intravenously over 2 minutes. Participants remained in the acute care facility for remainder of the day with continuous nursing care and under the direct supervision of a physician. The intravenous catheter was removed after 9 hours. The following day (Day 3) and 2 days later (Day 5), repeat blood samples were obtained by venipuncture.
Salivary free cortisol measurements were made on Day 1 to compare the in vivo cortisol pre-treatment with laboratory reports that typically test the effects of free glucocorticoid concentrations. On Day 2 of the study, total plasma cortisol was measured to allow for comparison with the many clinical reports that have assessed these hormones during experimental endotoxemia and in endotoxemic patients. For salivary free cortisol measurements, saliva samples were collected with a […]™ collection device and stored at −80° C. until analysis by SALIMETRICS® Expanded Range High Sensitivity Salivary Cortisol Enzyme Immunoassay Kit (State College, Pa.). The analytical sensitivity of this assay is 3 ng/dL. For total cortisol, plasma was separated from heparinized whole blood and stored at −80° C. until analysis for plasma cortisol on an […]® 1000 analyzer using a Siemens Cortisol kit (Los Angeles, Calif.). The analytical sensitivity of this assay is 0.2 μg/dL. All adrenocorticotropic hormone (ACTH) measurements were performed on the […]® 1000 analyzer using a Siemens ACTH kit (Los Angeles, Calif.). The analytical sensitivity of this assay is 9 pg/mL. C-reactive protein (CRP) measurements were performed on the Roche P Module using the Roche High Sensitivity CRP kit (Indianapolis, Ind.). Analytical sensitivity of this assay is 0.1 mg/L. Complete blood counts were performed on the ADVIA 120® Hematology Analyzer using Siemens reagents (Ramsey, Minn.).
Plasma samples were collected and frozen at −80° C. for batched measurement of TNFalpha, IL-6 and IL-10 concentrations. TNFalpha was measured using a TNFalpha sandwich ELISA (paired antibodies; BD Biosciences Pharmingen, San Diego, Calif.). IL-6 levels were determined using an IL-6 ELISA kit (Peprotech, Rocky Hill, N.J.). IL-10 was measured using an IL-10 ELISA kit (Biosource, Camarillo, Calif.). Further cytokine testing was completed on frozen samples using multiplex immunobead technology (Luminex Corp.) which combines the principle of a sandwich immunoassay with fluorescent bead-based technology, allowing individual and multiplex analysis of multiple analytes in a single microtiter well. […]

[3] = tested on: HIV-1 R5/M-tropic BaL; assay: TZM-bl infectivity assay, HIV-1 BaL; assay type: cell-based; conditions: for post-infection inhibition, BaL: 20 ng/mL
Method: (§1) The TZM indicator cell line is a HeLa cell derivative that expresses high levels of CD4, CCR5 and CXCR4 (Wei, et al. (2002) Antimicrob. Agents Chemother. 46(6):1896-905). The cells contain HIV long terminal repeat (LTR)-driven β-galactosidase and luciferase reporter cassettes that are activated by HIV tat expression.
(§2) TZM cells were seeded at 2×10^4 cells per well in a 96-well microtiter plate and allowed to adhere overnight at 37° C. Varying doses of recombinant human Trappin-2/Elafin (Peprotech, Rocky Hill, N.J.) were incubated with HIV-1 IIIB and BaL at multiplicity of infection (MOI) 1 for 1 hour at 37° C. in a final volume of 100 μl. Following incubation, the media was aspirated from TZM cells and the virus plus Trappin-2/Elafin was added to the cells along with 100 μl of TZM media. Luciferase activity was measured after 48 hours at 37° C. with 5% CO2 in a humidified incubator. Briefly, the supernatants were aspirated, and the cells were lysed with a BETA GLO luciferase assay substrate. Light intensity of each well was measured using a luminometer. Uninfected cells were used to determine background luminescence. All infectivity assays were performed in quadruplicate.
(§3) Other experiments were conducted in order to determine whether the inhibitory effects of Trappin-2/Elafin were at the cell surface level such as the blocking of a co-receptor. For these experiments, varying doses of Trappin-2/Elafin were directly added to TZM cells and incubated for 1 hour at 37° C. prior to washing with 1×PBS and addition of IIIB or BaL viruses. In additional experiments to determine possible post-infection mechanisms of inhibition by Trappin-2/Elafin, TZM cells were infected with HIV-1 IIIB and BaL at MOI 1 and were washed at 6 hours and 24 hours post-infection followed by the addition of 10 ng/ml rTrappin-2/Elafin. Assays were developed at 48 hours by addition of the BETA-GLO substrate and measuring relative light units using a luminometer.
(§4) Since HIV-1 is an important sexually transmitted pathogen, the activity of recombinant Trappin-2/Elaf in (rTrappin-2/Elafin) was evaluated against HIV-1 X4/T-tropic IIIB and R5/M-tropic BaL. HIV-1 IIIB and BaL were incubated with rTrappin-2/Elafin at 0.01, 0.1, 1, and 10 ng/ml for 1 hour at 37° C. TZM-bl indicator cells were plated the previous day at 25,000 cells per well and grown to 70-80% confluence. The virus-Trappin-2/Elafin mixture was added to the TZM cells and incubated for 48 hours at 37° C. At the end of the incubation period, BETA-GLO substrate was added to the cells and viral infection was quantified using a luminometer, expressed as relative light units (RLU). The data was expressed as percent of control with virus-only control set at 100%. […] Therefore, the concentrations of Trappin-2/Elafin showing anti-HIV-1 activity were in the range of physiological levels of this molecule that were secreted by the FRT epithelial cells. Since the inhibitory activity was observed as a result of pre-incubation of HIV-1 and rTrappin-2/Elafin, it is contemplated that the effect of Trappin-2/Elafin on viral infection was direct. […]
(§5) Laboratory-adapted viral strains HIV-1 IIIB (×4) and BaL (R5) were obtained and virus stocks were propagated in PHA-stimulated human PBMC and stored frozen at −80° C. Virus stocks produced in PBMC of molecularly cloned HIV-1 NL4.3 (×4; lab-adapted) and YU-2.c (R5; directly cloned without culture) were obtained. Virus titers were determined on TZM-bl cells as described herein. Also used was a PBMC-derived virus stock of pCH077.c, a recently generated Clade B infectious molecular clone matching the nucleotide sequence determined to be the transmitted/founder virus sequence of CHAVI subject 700010077. […]

[4] = tested on: HIV-1 X4/T-tropic IIIB; assay: TZM-bl infectivity assay, HIV-1 IIIB; assay type: cell-based
Method: as §1, §2, §3, §4, §5

[5] = cells pre-incubated 1 hour, washed before virus
[6] = virus pre-incubated 1 hour with 2, 20, 200 ng/mL, 48 hours

With `NC(=O)c1ccc(-c2nc(-c3ccc4c(c3)OCO4)c(-c3ccccn3)[nH]2)cc1` [SB431542] the “modulatory effect of ECC-1 CM (suppression of DC-SIGN expression on MDDCs)” value ([1]; SB431542 10 μM added with ECC-1 CM during differentiation) was “abrogated”, the “expression of CD1a by CM-DC” value ([1]; TGF-beta receptor blocker with ECC-1 CM) was “no significant effect” and the “UEC conditioned medium effects on DC (enhanced CCR5 and CXCR4, suppressed DC-SIGN)” value ([1]; in vitro differentiation) was “abolished these effects”.
For `C[C@]12CCC(=O)C=C1CC[C@@H]1[C@@H]2[C@@H](O)C[C@@]2(C)[C@H]1CC[C@]2(O)C(=O)CO` [hydrocortisone], the “release of early pro-inflammatory molecules” value ([2]; 1.5 μg/kg/minute at 10 ml/hr for six hours) was “significant enhancement”, the “Plasma IL-6 after LPS, vs Control Group” value ([2]; Pharm 3 μg/kg/min) was “no difference” and the “Plasma IL-10 after LPS, vs Control Group” value ([2]; Pharm 3 μg/kg/min) was “no difference”. The “TNF-alpha concentrations in plasma after LPS, vs Control Group” value ([2]; Pharm 3 μg/kg/min) was “not significantly different”, the “plasma G-CSF concentrations after LPS, vs Control Group” value ([2]; Pharm 3 μg/kg/min) was “no difference” and the “TNF-alpha concentrations in plasma after LPS, vs Control Group” value ([2]; Stress 1.5 μg/kg/min) was “not significantly different”. The “ACTH concentrations, vs Control Group” value ([2]; Stress 1.5 μg/kg/min, 3 and 4 hours after LPS injection) was “higher”, the “plasma G-CSF concentrations after LPS, vs Control Group” value ([2]; Stress 1.5 μg/kg/min) was “significant augmentation” and the “Plasma IL-6 after LPS, vs Control Group” value ([2]; Stress 1.5 μg/kg/min, p<0.005) was “significantly higher”. The “Plasma IL-10 after LPS, vs Control Group” value ([2]; Stress 1.5 μg/kg/min, p<0.05) was “significantly lower”.
For “rCCL20/MIP3α: recombinant human CCL20/MIP3α (Peprotech)”, the “post-infection inhibition, BaL” value ([3]; added 6 hours post-infection) was “slight inhibition”, the “post-infection inhibition, BaL” value ([3]; added 24 hours post-infection) was “no significant post-infection inhibition” and the “inhibition of R5/BaL after pre-incubation of TZM cells” value [3, 5] was “no significant inhibition”. The “inhibition of R5/BaL” value [3, 6] was “inhibited”, the “post-infection inhibition, IIIB” value ([4]; added 6 and 24 hours post-infection, 20 ng/mL) was “no significant post-infection inhibition” and the “inhibition of X4/IIIB after pre-incubation of TZM cells” value [4, 5] was “no significant inhibition”. For the same compound, the “inhibition of X4/IIIB” value [4, 6] was “inhibited”.
